Some test systems named below: PC-3 prostate; MCF7 breast; MALME-3M melanoma; HOP-92 NSCLC; OVCAR-3 ovarian; BT-549 breast; HOP-62 NSCLC; UACC-257 melanoma; HCC-2998 colon; MOLT-4 leukemia.
What all share (experiment): growth of human tumour cells (NCI), 48 h

Where “and” joins values, the source holds several entries; their conditions need not be identical. Identical values can stand only once.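 Exposure lasted 48 hours, with cells grown in 96-well plates and compounds tested at five concentrations. Here, GI50 denotes the concentration required for 50% inhibition of growth. The concentration for full growth arrest is given as TGI.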

In the case of `COc1ccccc1S(=O)(=O)Nc1ccc2c(c1)CN(C)C(=O)N2`, the GI50 is 10.7 µM and 16.3 µM in the assay with PC-3 prostate; 1.87 µM and 1.48 µM with MCF7 breast; 4.35 µM and 1.75 µM in the assay on MALME-3M melanoma; 2.22 µM and 1.18 µM in the assay with HOP-92 NSCLC; 4.71 µM in the assay with OVCAR-3 ovarian; 9.98 µM and 26.3 µM in the assay with BT-549 breast. The GI50 in the assay on HOP-62 NSCLC was 4.93 µM and 4.22 µM; in the assay with UACC-257 melanoma, 4.46 µM and 3.86 µM; in the assay with HCC-2998 colon it was 6.76 µM and 9.52 µM; in the assay with MOLT-4 leukemia it was 11 µM and 12.7 µM. Moreover, the TGI was > 100 µM in the assay on PC-3 prostate; > 100 µM in the assay with MCF7 breast; > 100 µM in the assay with MALME-3M melanoma; > 51.9 µM and 71.6 µM with HOP-92 NSCLC; > 100 µM with OVCAR-3 ovarian; > 100 µM with BT-549 breast. Further, the TGI with HOP-62 NSCLC is > 100 µM; in the assay on UACC-257 melanoma, > 100 µM; in the assay on HCC-2998 colon, > 65.1 µM and 81.5 µM; in the assay with MOLT-4 leukemia, > 100 µM.

In the case of `COc1cc2nc3cc([N+](=O)[O-])ccc3c(NCCCNCC(C)(C)O)c2cc1OC`, the GI50 was 0.322 µM in the assay with PC-3 prostate; 0.208 µM in the assay on MCF7 breast; 0.315 µM with MALME-3M melanoma; 0.225 µM in the assay on HOP-92 NSCLC; 0.33 µM in the assay with OVCAR-3 ovarian; 1.75 µM in the assay on BT-549 breast. Further, the GI50 with HOP-62 NSCLC is 0.169 µM; in the assay on UACC-257 melanoma, 1.62 µM; in the assay with HCC-2998 colon it was 0.233 µM; with MOLT-4 leukemia, 0.372 µM. Besides, the TGI in the assay on PC-3 prostate came out at 1.11 µM; with MCF7 breast it was 1.16 µM; in the assay with MALME-3M melanoma, 0.872 µM; with HOP-92 NSCLC, 0.726 µM; with OVCAR-3 ovarian, 1.03 µM; in the assay with BT-549 breast, 3.32 µM. In addition, the TGI stood at 0.708 µM in the assay on HOP-62 NSCLC, 3.1 µM in the assay with UACC-257 melanoma, 0.62 µM with HCC-2998 colon and 6.67 µM with MOLT-4 leukemia.

Turning to `N[C@@H]1CCCN(c2c(/C=C3\SC(=O)NC3=O)cccc2-c2ccccc2)C1`, the GI50 in the assay with PC-3 prostate is 10.2 µM; in the assay with MCF7 breast it was 11.4 µM; in the assay with MALME-3M melanoma, 7.52 µM; with HOP-92 NSCLC it was 3.17 µM; with OVCAR-3 ovarian it was 15.3 µM; in the assay with BT-549 breast it was 11.5 µM. The GI50 was 11.7 µM with HOP-62 NSCLC, 10.9 µM in the assay on UACC-257 melanoma, 14.1 µM in the assay with HCC-2998 colon and 14.7 µM with MOLT-4 leukemia. Moreover, the TGI in the assay on PC-3 prostate turned out to be 25.2 µM; in the assay with MCF7 breast, 27.1 µM; in the assay with MALME-3M melanoma, 24.5 µM; with HOP-92 NSCLC, 20.1 µM; in the assay on OVCAR-3 ovarian, 29.4 µM; in the assay on BT-549 breast it was 24.1 µM. Moreover, the TGI came out at 25.5 µM in the assay on HOP-62 NSCLC, 23.5 µM in the assay with UACC-257 melanoma, 28.6 µM in the assay on HCC-2998 colon and 45.6 µM with MOLT-4 leukemia.

In the case of `C#Cc1cccc(Nc2nc3ccc([N+](=O)[O-])cc3nc2Nc2cccc(C#C)c2)c1`, the GI50 was 0.22 µM in the assay with PC-3 prostate; 0.266 µM in the assay with MCF7 breast; 0.235 µM with MALME-3M melanoma; 0.191 µM with HOP-92 NSCLC; 0.193 µM in the assay on OVCAR-3 ovarian; 0.294 µM in the assay with BT-549 breast. In addition, the GI50 in the assay with HOP-62 NSCLC is 0.188 µM; in the assay with UACC-257 melanoma it was 0.207 µM; in the assay on HCC-2998 colon, 0.341 µM; with MOLT-4 leukemia it was 0.247 µM. For the same compound, the TGI in the assay with PC-3 prostate was determined as 1.17 µM; in the assay on MCF7 breast it was 1.07 µM; in the assay on MALME-3M melanoma it was 0.614 µM; in the assay with HOP-92 NSCLC, 0.704 µM; in the assay on OVCAR-3 ovarian, 0.67 µM; with BT-549 breast, 1.2 µM. Also, the TGI was 0.476 µM in the assay with HOP-62 NSCLC, 0.602 µM in the assay on UACC-257 melanoma, 1.27 µM in the assay on HCC-2998 colon and 1.02 µM in the assay with MOLT-4 leukemia.

As for `Cc1cc(C)nc(SC2=C(Nc3cccc(Cl)c3C)C(=O)N(Cc3ccccc3)C2=O)n1`, the GI50 in the assay with PC-3 prostate, with MCF7 breast, with MALME-3M melanoma, in the assay on HOP-92 NSCLC, in the assay with OVCAR-3 ovarian and in the assay with BT-549 breast was > 160 µM in each case. In addition, the GI50 with HOP-62 NSCLC, with UACC-257 melanoma, with HCC-2998 colon and with MOLT-4 leukemia was > 160 µM throughout. Further, the TGI in the assay with PC-3 prostate, in the assay on MCF7 breast, in the assay with MALME-3M melanoma, in the assay with HOP-92 NSCLC, in the assay with OVCAR-3 ovarian and in the assay on BT-549 breast was > 160 µM each time. Moreover, the TGI in the assay with HOP-62 NSCLC, in the assay with UACC-257 melanoma, in the assay on HCC-2998 colon and in the assay on MOLT-4 leukemia was > 160 µM in each case.

For the compound `CCCCn1sc(=O)n(Cc2ccc(CNC(=O)OCc3ccc4c(Br)cc(Br)c(O)c4n3)cc2)c1=O`, the GI50 in the assay on PC-3 prostate is 0.651 µM; with MCF7 breast, 0.369 µM; in the assay on MALME-3M melanoma, 0.831 µM; with HOP-92 NSCLC, 1.41 µM; in the assay with OVCAR-3 ovarian, 0.292 µM; with BT-549 breast, 0.406 µM. Besides, the GI50 in the assay on HOP-62 NSCLC was 0.749 µM; in the assay on UACC-257 melanoma, > 100 µM; in the assay with HCC-2998 colon, 4.25 µM; with MOLT-4 leukemia, 0.895 µM. Further, the TGI was > 100 µM in the assay on PC-3 prostate; > 100 µM with MCF7 breast; > 100 µM with MALME-3M melanoma; > 100 µM with HOP-92 NSCLC; 0.8 µM in the assay on OVCAR-3 ovarian; > 100 µM in the assay on BT-549 breast. In addition, the TGI was > 100 µM in the assay with HOP-62 NSCLC, > 100 µM in the assay on UACC-257 melanoma, > 69.8 µM in the assay on HCC-2998 colon and > 100 µM in the assay with MOLT-4 leukemia.

With `C#CCOc1cccc(Nc2ncnc3ccc(NC(=O)CCl)cc23)c1`, the GI50 in the assay with PC-3 prostate is 0.581 µM; in the assay on MCF7 breast it was 0.428 µM; in the assay with MALME-3M melanoma, 3.46 µM; with HOP-92 NSCLC, 2.9 µM; in the assay with OVCAR-3 ovarian, 0.908 µM; in the assay on BT-549 breast, 1.66 µM. Moreover, the GI50 in the assay on HOP-62 NSCLC was 4.2 µM; with UACC-257 melanoma, 7.49 µM; in the assay with HCC-2998 colon, 3.71 µM; with MOLT-4 leukemia it was 0.0864 µM. For the same compound, the TGI in the assay on PC-3 prostate came to 12.4 µM; in the assay on MCF7 breast it was 14.4 µM; in the assay on MALME-3M melanoma it was 8.63 µM; in the assay with HOP-92 NSCLC, 16.9 µM; in the assay on OVCAR-3 ovarian, 7.06 µM; in the assay with BT-549 breast, 10.1 µM. For the same compound, the TGI in the assay on HOP-62 NSCLC was > 53.2 µM; in the assay on UACC-257 melanoma, 26 µM; with HCC-2998 colon, 22.7 µM; in the assay on MOLT-4 leukemia, > 89.5 µM.
